Data on three molecules can be found in US9453835B2, “Method for screening a modulator of a TMEM16 family member” (Kyoto University, priority 2012, dated 2016).

Assay [1] deals with TMEM16F^flox/flox IFETs. The assay can be described thus: Ca2+-induced PE exposure (binding of RO-peptide). The note with it: data not shown. The class given is cell-based, mouse.
Assay [2] has as its system IFETs expressing TMEM16A, 16B, 16E, 16H, or 16K. The assay can be described thus: Internalization of NBD-PC by TMEM16 transformants without scramblase activity. Type of assay: cell-based, mouse. The note with it: 250 nM A23187. The procedure: (§1) A and C, The ability of TMEM16 family members to internalize NBD-PC and NBD-GalCer. TMEM16F^−/− IFETs transformed with the indicated TMEM16 family member were treated at 15° C. with (+) or without (−) 250 nM A23187 in the presence of 100 nM NBD-PC for 4 min (A) or 250 nM NBD-GalCer for 5 min (C), and the internalized, or BSA-non extractable NBD-PC or NBD-GelCer, was quantified by FACSAria, and expressed in MFI.
(§2) Cells (10^6) were stimulated at 15° C. with 250 nM A23187 in 1 ml Hank's Balanced Salt Solution (HBSS) (Gibco, Billings, Mont.) containing 1 mM CaCl2, with a fluorescent probe, 100 nM 1-oleoyl-2-{6-[(7-nitro-2-1,3-benzoxadiazol-4-yl)amino]hexanoyl}-sn-glycero-3-phosphocholine (NBD-PC) (Avanti Polar Lipids, Alabaster, Ala.), or 250 nM N-[6-[(7-nitro-2-1,3-benzoxadiazol-4-yl)amino]hexanoyl]-D-galactosyl-β1-1′-sphingosine (C6-NBD galactosyl ceramide or NBD-GalCer) (Avanti Polar Lipids). Aliquots (150 μl) were mixed with 150 μl HBSS containing 5 mg/ml fatty-acid free BSA (Sigma-Aldrich) and 500 nM Sytoxblue (Molecular Probes, Eugene, Oreg.), and analyzed by FACSAria.

The test system of assay [3] is TMEM16F^flox/flox IFETs. In words: Internalization of NBD-PC and NBD-GalCer. The note with it: 15° C., 250 nM A23187. The class given is cell-based, mouse. The procedure:
B and C, Ca^2+ ionophore induced lipid internalization. TMEM16F^flox/flox and TMEM16F^−/− IFETs were treated at 15° C. with 250 nM A23187 in the presence of 100 nM NBD-PC (B) or 250 nM NBD-GalCer (C). Using aliquots of the reaction mixture, the BSA-non extractable level of NBD-PC or NBD-GalCer in the SytoxBlue-negative population was determined at the indicated time by FACSAria, and expressed in MFI.
as §2

Assay [4] relates to TMEM16F^flox/flox IFETs. In words: Ca2+-induced PS exposure (Cy5-Annexin V binding, flow cytometry). The class given is cell-based, mouse. The note with it: 20° C., 3.0 μM A23187. The protocol:
(§3) A, Ca^2+ ionophore induced PS exposure. TMEM16F^flox/flox and TMEM16F^−/− IFETs were treated at 20° C. with 3.0 μM A23187 in the presence of Cy5-labeled Annexin V. Annexin V-binding to the cells was monitored by flow cytometry for 10 min, and expressed in MFI (mean fluorescence intensity).
(§4) The Ca^2+-induced PS exposure were examined as described (20). In brief, 5×10^5 cells were stimulated at 20° C. with 3.0 μM A23187 in 500 μl of 10 mM Hepes-NaOH buffer (pH 7.4) containing 140 mM NaCl, 2.5 mM CaCl2 and 5 μg/ml Propidium Iodide (PI), and 1000-fold-diluted Cy5-labeled Annexin V (Bio Vision, Milpitas, Calif.), and applied to the injection chamber of a FACSAria (BD Bioscience, Franklin Lakes, N.J.) set at 20° C.
(In general: In flow cytometry, cells or beads pass a laser one at a time.)

Assay [5] concerns TMEM16F^−/− IFETs. The description is as above. The class given is cell-based, mouse. The note with it: 20° C., 3.0 μM A23187. The procedure:
as §3, §4

Assay [6] concerns TMEM16D transformants of TMEM16F^−/− IFETs. In words: Internalization of NBD-PC and NBD-GalCer by TMEM16D transformants. Type of assay: cell-based, mouse. Particulars: 15° C. The procedure:
as §1
B, Requirement of Ca^2+ for the constitutive internalization of NBD-PC by TMEM16D. The TMEM16D transformants of TMEM16F^−/− IFETs were treated with 40 μM BAPTA-AM for 30 min in Ca^2+-free RPMI, and incubated at 15° C. for 8 min in HBSS containing 1 mM CaCl2 and 100 nM NBD-PC. The internalized NBD-PC was determined as above, and expressed as percentage of the internalized NBD-PC obtained without BAPTA-AM treatment.
as §2

Assay [7] has as its system IFETs expressing mouse Fas. In words: FasL-induced apoptosis. Type of assay: cell-based. The protocol: E-G, FasL-induced apoptosis. Fas-expressing TMEM16F^flox/flox and TMEM16F^−/− IFETs were treated at 37° C. for 2 h with 60 units/ml FasL in the absence or presence of 50 μM Q-VD-OPh. In E, the cells were permeabilized with 90% methanol, and stained with rabbit anti-active caspase 3 followed by incubation with Alexa 488-labeled goat anti-rabbit IgG. In F, cells were stained with Cy5-labeled Annexin V and PI and analyzed by FACSAria. In G, cells were analyzed by FACSAria before and after FasL treatment; the FSC and SSC profiles are shown.
Apoptosis was induced with FasL as described (25). In brief, IFETs expressing mouse Fas were treated with 60 units/ml FasL at 37° C. for 2 h, and PS exposure was determined by flow cytometry with Cy5-Annexin V. To detect activated caspase 3, cells were fixed at 37° C. for 10 min in PBS containing 1% paraformaldehyde, permeabilized with 90% methanol at −20° C., and stained with rabbit mAb against active caspase 3 (Cell Signaling, Danvers, Mass.). Cells were then incubated with Alexa 488-labeled goat anti-rabbit IgG (Invitrogen), and analyzed by FACSAria.

[8] abbreviates: TMEM16F^flox/flox and TMEM16F^−/− IFETs, to the same extent.

Take `CNc1ccc2oc(C[C@H]3O[C@@]4(CC[C@H]3C)O[C@H]([C@H](C)C(=O)c3ccc[nH]3)[C@H](C)C[C@H]4C)nc2c1C(=O)O` [A23187]: the PE-exposure entry in assay [1] was “caused rapid PE-exposure”. Also, in assay [2], the NBD-PC uptake result is recorded as “did not induce”. Further, the “internalization of NBD-PC and NBD-GalCer” value in assay [3] is “internalized NBD-PC and NBD-GalCer”. For the same molecule, the PS exposure entry in assay [4] is given as “quickly exposed PS”; in assay [5] it was “completely absent”. In addition, the NBD-PC internalization entry in assay [6] (250 nM A23187, 100 nM NBD-PC, 4 min, versus constitutive uptake) is listed as “strongly enhanced”. In assay [6] (250 nM A23187, 250 nM NBD-GalCer, 5 min, versus constitutive uptake), the NBD-GalCer uptake result is listed as “enhanced”.

As for `CC(=O)OCOC(=O)CN(CC(=O)OCOC(C)=O)c1ccccc1OCCOc1ccccc1N(CC(=O)OCOC(C)=O)CC(=O)OCOC(C)=O` [BAPTA-AM], the “NBD-PC uptake observed without Ca2+-ionophore” value in assay [6] (pre-treatment 40 μM BAPTA-AM 30 min, 100 nM NBD-PC, 8 min) is reported as “reduced”.

B1: FasL: Leucine-zipper-tagged human FasL produced in COS7 cells (protein)
chain: QIGHPSPPPEKKELRKVAHLTGKSNSRSMPLEWEDTYGIVLLSGVKYKKGGLVINETGLYFVYSKVYFRGQSCNNLPLSHKVYMRNSKYPQDLVMMEGKMMSYCTTGQMWARSSYLGAVFNLTSADHLYVNVSELSLVNFEESQTFFGLYKL
modifications: left off: small tags and cut ends
notes: Leucine-zipper-tagged human FasL produced in COS7 cells
Consider B1, for which the “caspase 3 activation” value in assay [7] (60 units/ml FasL, 37° C., 2 h) was “efficiently activated”. Moreover, in assay [7] (60 units/ml FasL, 37° C., 2 h, Cy5-Annexin V), the PS exposure result is on record as “quickly responded by exposing PS”. In assay [7] (setting [8]), the “cell size (forward-scattered light, FSC)” value is recorded as “decreased” and the “cellular granularity (side-scattered light, SSC)” value is listed as “increased”.
